pIC50: −log10 of the molar value. Read-outs that look alike come from different tables or passages of the source.
Assays:
MIA PaCa-2 = assay: Tumor cell anti-proliferation assay (CTG assay), MIA PaCa-2; type: cell-based; settings: read-out: IC50 MIA PaCa-2
Method: (§1) Assay 3: Tumor Cell Anti-Proliferation Assay (CTG Assay)
(§2) Tested tumor cell lines (MIA PaCa-2, NCI-H358, and A549) were seeded to the 96-well plate for overnight, then cells were treated with the test compound at 9 serially diluted concentrations in triplicate. After 3-days incubation with the test compound, the CTG assay was performed to evaluate the IC50. The 3 cell lines were tested in the same manner. Cisplatin were used as the positive control.
(§3) Day −1: Cell Plating for Cell Lines
(§4) 1. Adjust the cell concentration to the appropriated number with the medium, and for each well of a 96-well plate, add 90 μl cell suspensions (Cell concentration will be adjusted according to the data base or density optimization assay). 2. Incubate the plates for overnight in humidified incubator at […] with 5% CO2.
(§5) Day 0: T0 Plate Reading and Compound Treatment
(§6) 3. Add 10 μL culture medium to each well of plate A for T0 reading.
(§7) 4. Equilibrate the plate and its content at RT for approximately 30 min.
(§8) 5. Add 50 μL CellTiter-Glo® Reagent to each well for T0 reading.
(§9) 6. Mix contents for 2 minutes on an orbital shaker to facilitate cell lysis.
(§10) 7. Allow the plate to incubate at room temperature for 10 minutes to stabilize the luminescent signal. Note: Uneven luminescent signal within standard plates can be caused by temperature gradients, uneven seeding of cells or edge effects in multiwall plates.
(§11) 8. Place a black BackSeal sticker to the bottom of each plate.
(§12) 9. Record luminescence using an Envision Multi Label Reader.
(§13) 10. Dilute the test compound and the positive control (Cisplatin). Add 10 μL of 10× test compound working solutions into the corresponding wells. Incubate the test plates in the humidified incubator at 37° C. with 5% Co2.
(§14) Day 3: Plate Reading for 3-Day Assay
(§15) 11. Monitor under the microscope to make sure that the cells in control wells are healthy.
(§16) 12. After three days incubation, add 50 μL CellTiter-Glo® Reagent to each well.
(§17) 13. Mix contents for 2 minutes on an orbital shaker to facilitate cell lysis.
(§18) 14. Allow the plate to incubate at room temperature for 10 minutes to stabilize the luminescent signal.
(§19) 15. Note: Uneven luminescent signal within standard plates can be caused by temperature gradients, uneven seeding of cells or edge effects in multiwall plates.
(§20) 16. Place a black BackSeal sticker to the bottom of each plate.
(§21) 17. Record luminescence using an Envision Multi Label Reader.
(§22) In order to calculate IC50, a dose-response curve was fitted using nonlinear regression model with a sigmoidal dose response. The formula of the surviving rate is shown below, and the IC50 was automatically produced by GraphPad Prism 5.0.
(§23) The surviving rate […]=(LumTest compound−LumMedium control)/(LumNone treated-LumMedium control)×100%.
(§24) LumNone treated-LumMedium control is set as 100% o and LumMedium control is set as […]. T0 value will be presented as percentage of LumNone treated.

KRAS G12C = KRAS G12C (Homo sapiens, UniProt P01116, G12C); assay: KRAS GDP FI assay; type: biochemical; settings: kinetic reading Ex580/Em620 for 120 min
Source text: Assay 2: KRAS GDP FI Assay
1. Prepare compound dilution plate.
2. Transfer Inhibitor/DMSO to assay plate by Echo.
3. Prepare 1× assay buffer.
4. Prepare KRAS G12C mix & SOS1 mix & GTP mix & detection reagent mix.
5. Add KRAS G12C mix, SOS1 mix, GTP mix.
6. Add detection reagent mix to assay plate.

NCI-H358 = assay: Tumor cell anti-proliferation assay (CTG assay), NCI-H358; type: cell-based; settings: read-out: IC50 NCI-H358
Method: as §1, §2, §3, §4, §5, §6, §7, §8, §9, §10, §11, §12, §13, §14, §15, §16, §17, §18, §19, §20, §21, §22, §23, §24

[1] = MIA PaCa-2, 3-days incubation, CTG
[2] = NCI-H358, 3-days incubation, CTG
[3] = Homo sapiens, MIA PaCa-2, 72 h, MIA PaCa-2, 3-days incubation, CTG

| Compound | pIC50 (KRAS G12C) | pIC50 (MIA PaCa-2; [3]) | other results |
| --- | --- | --- | --- |
| 2-((S)-1-acryloyl-4-(7-(8-chloronaphthalen-1-yl)-2-(((2S,4R)-4-fluoro-1-methylpyrrolidin-2-yl) [Compound 25-a] |  |  | pIC50 (MIA PaCa-2; [1]): < 8.00 |
| 2-((S)-1-acryloyl-4-(7-(8-chloronaphthalen-1-yl)-2-(((2S,4R)-4-fluoro-1-methylpyrrolidin-2-yl) [Compound 25-b] | 7.43 |  | pIC50 (MIA PaCa-2; [1]): 5.95 |
| C=CC(=O)N1CCN(c2nc(OC[C@@H]3CCCN3C)nc3c(=O)n(-c4cccc5cccc(Cl)c45)c(C(F)(F)F)nc23)[C@@H](C)C1 (single isomer, unassigned) [Compound 24-a] |  |  | pIC50 (NCI-H358; [2]): 6.39 |
| C=CC(=O)N1CCN(c2nc(OC[C@@H]3CCCN3C)nc3c(=O)n(-c4cccc5cccc(Cl)c45)c(C(F)(F)F)nc23)[C@@H](C)C1 (single isomer, unassigned) [Compound 24-b] |  |  | pIC50 (NCI-H358; [2]): 5.84 |
| C=CC(=O)N1CCN(c2nc(OC[C@@H]3CCCN3C)nc3c(=O)n(-c4cccc5cccc(Cl)c45)c(C)nc23)[C@@H](C)C1 (single isomer, unassigned) [Compound 26-a] |  | 5.36 |  |
| C=CC(=O)N1CCN(c2nc(OC[C@@H]3CCCN3C)nc3c(=O)n(-c4cccc5cccc(Cl)c45)c(C)nc23)[C@@H](C)C1 (single isomer, unassigned) [Compound 26-b] | 5.82 |  | pIC50 (MIA PaCa-2; [1]): 5.54 |
| C=CC(=O)N1CCN(c2nc(OC[C@@H]3CCCN3C)nc3c(=O)n(-c4cccc5cccc(Cl)c45)c(CC)nc23)[C@@H](C)C1 (single isomer, unassigned) [Compound 27-a] |  | 5.54 |  |
| C=CC(=O)N1CCN(c2nc(OC[C@@H]3CCCN3C)nc3c(=O)n(-c4cccc5cccc(Cl)c45)c(CC)nc23)[C@@H](C)C1 (single isomer, unassigned) [Compound 27-b] | 6.05 |  | pIC50 (MIA PaCa-2; [1]): 5.57 |
| C=CC(=O)N1C[C@H](C)N(c2nc(OC[C@@H]3CCCN3C)nc3c(=O)n(-c4cccc5cccc(Cl)c45)c(C(F)(F)F)nc23)[C@@H](C)C1 (single isomer, unassigned) [Example 29-a] | 7.05 |  | pIC50 (NCI-H358; [2]): 6.83 |
| C=CC(=O)N1CCN(c2nc(OC[C@@H]3CCCN3C)nc3c(=O)n(-c4cccc5cccc(Cl)c45)c(C(F)(F)F)nc23)C[C@@H]1CC#N (single isomer, unassigned) [Example 32-a] |  | 5.43 |  |
| C=CC(=O)N1CCN(c2nc(OC[C@@H]3CCCN3C)nc3c(=O)n(-c4cccc5cccc(Cl)c45)c(C(F)(F)F)nc23)C[C@@H]1CC#N (single isomer, unassigned) [Example 32-b] | 7.08 |  | pIC50 (MIA PaCa-2; [1]): 6.73 |
| C=CC(=O)N1CCN(c2nc(OC[C@@H]3C[C@@H](F)CN3C)nc3c(=O)n(-c4cccc5cccc(Cl)c45)c(C(F)(F)F)nc23)[C@@H](C)C1 (single isomer, unassigned) [Example 36-a] | 6.81 |  |  |
| C=CC(=O)N1CCN(c2nc(OC[C@@H]3CCCN3C)nc3c(=O)n(-c4ccccc4F)c(C(F)(F)F)nc23)[C@@H](C)C1 (single isomer, unassigned) [Example 40-b] | 6.39 |  |  |
| C=CC(=O)N1CCN(c2nc(OC[C@@H]3CCCN3C)nc3c(=O)n(-c4cccc5cccc(Cl)c45)c(C(F)(F)F)nc23)[C@@H](C)C1 [Compound 24, 8-((S)-4-acryloyl-2-methylpiperazin-1-yl)-3-(8-chloronaphthalen-1-yl)-6-(((S)-1-methylpyrrolidin-2-yl)methoxy)-2-(trifluoromethyl)pyrimido[5,4-d] pyrimidin-4(3H)-one] | 6.88 | 6.32 |  |
| C=CC(=O)N1C[C@H](C)N(c2nc(OC[C@@H]3CCCN3C)nc3c(=O)n(-c4cccc5cccc(Cl)c45)c(C)nc23)[C@@H](C)C1 [Compound 28, 8-((2S,6S)-4-acryloyl-2,6-dimethylpiperazin-1-yl)-3-(8-chloronaphthalen-1-yl)-2-methyl-6-(((S)-1-methylpyrrolidin-2-yl)methoxy)pyrimido[5,4-d]pyrimidin-4(3H)-one] | 6.72 | 5.82 |  |
| C=CC(=O)N1CCN(c2nc(OC[C@@H]3CCCN3C)nc3c2CCCC(c2c(C)ccc4[nH]ncc24)C3)C[C@@H]1CC#N (stereo partly drawn) [Example 30, 2-((2S)-1-acryloyl-4-(8-(5-methyl-1H-indazol-4-yl)-2-(((S)-1-methylpyrrolidin-2-yl)methoxy)-6,7,8,9-tetrahydro-5H-cyclohepta[d]pyrimidin-4-yl)piperazin-2-yl)acetonitrile] | 6.91 | 7.14 |  |
| C=CC(=O)N1CCN(c2nc(OC[C@@H]3CCCN3C)nc3c(=O)n(-c4cccc5cccc(F)c45)c(C(F)(F)F)nc23)C[C@@H]1CC#N [Example 37, 2-((S)-1-acryloyl-4-(7-(8-fluoronaphthalen-1-yl)-2-(((S)-1-methylpyrrolidin-2-yl)methoxy)-8-oxo-6-(trifluoromethyl)-7,8-dihydropyrimido[5,4-d]pyrimidin-4-yl)piperazin-2-yl) acetonitrile] | 6.75 |  |  |
| C=CC(=O)N1CCN(c2nc(OC[C@@H]3CCCN3C)nc3c(=O)n(-c4c(F)cccc4OC)c(C(F)(F)F)nc23)C[C@@H]1CC#N [Example 38, 2-((S)-1-acryloyl-4-(7-(2-fluoro-6-methoxyphenyl)-2-(((S)-1-methylpyrrolidin-2-yl)methoxy)-8-oxo-6-(trifluoromethyl)-7,8-dihydropyrimido[5,4-d]pyrimidin-4-yl)piperazin-2-yl)acetonitrile] | 6.31 |  |  |
| C=CC(=O)N1CCN(c2nc(OC[C@@H]3CCCN3C)nc3c(=O)n(-c4cccc5cccc(C)c45)c(-c4ccccc4)nc23)C[C@@H]1CC#N [Example 39, 2-((S)-1-acryloyl-4-(7-(8-methylnaphthalen-1-yl)-2-(((S)-1-methylpyrrolidin-2-yl)methoxy)-8-oxo-6-phenyl-7,8-dihydropyrimido[5,4-d]pyrimidin-4-yl)piperazin-2-yl)acetonitrile] | 6.44 |  |  |
| C=CC(=O)N1C[C@H](C)N(c2nc(OC[C@@H]3CCCN3C)nc3c(=O)n(-c4cn(C)c5ccccc45)c(C(F)(F)F)nc23)[C@@H](C)C1 [Example 43] |  |  | pIC50 (MIA PaCa-2; Homo sapiens, MIA PaCa-2, 72 h): 6.12; pIC50 (NCI-H358; Homo sapiens, NCI-H358, 72 h): 6.59 |

— patent publication US20230212170A1, “INHIBITORS OF KRAS G12C PROTEIN AND USES THEREOF” (SHANGHAI ANTENGENE CORPORATION LIMITED, priority 2020, published 2023)
